For assay [1], the system named is Plasmodium falciparum. The experiment in a line: Antimalarial activity against Plasmodium falciparum. The class given is functional, organism-based.
Assay [2] relates to Plasmodium falciparum. In words: Antimalarial activity against Plasmodium falciparum harboring 1 DNNND repeat. The assay is classed as functional, organism-based.
The subject of assay [3] is Plasmodium falciparum. In words: Antimalarial activity against Plasmodium falciparum harboring 3 DNNND repeat. The class given is functional, organism-based.
Assay [4] deals with Plasmodium falciparum. The experiment in a line: Antimalarial activity against Plasmodium falciparum harboring pfcrt-76 mutant gene. The assay is classed as functional, organism-based.
In assay [5] the test system is Plasmodium falciparum. In words: Antimalarial activity against Plasmodium falciparum harboring pfmdr1-86 mutant gene. The class given is functional, organism-based.
For assay [6], the system named is Plasmodium falciparum. The experiment in a line: Antimalarial activity against Plasmodium falciparum harboring pfmdr1-86 mutant gene with 2 DNNND repeat. The assay is classed as functional, organism-based.
For assay [7], the system named is Plasmodium falciparum. The experiment in a line: Antimalarial activity against Plasmodium falciparum harboring pfcrt-76 mutant gene with 2 DNNND repeat. The class given is functional, organism-based.
The test system of assay [8] is Plasmodium falciparum. The experiment in a line: microbe, parasite or virus in culture. Conditions: isolate AK183.
Description: Antimalarial activity against Plasmodium falciparum isolate AK183
Assay [9] concerns Plasmodium falciparum. In words: microbe, parasite or virus in culture. The note with it: isolate 8885.
Description: Antimalarial activity against Plasmodium falciparum isolate 8885
In assay [10] the test system is Plasmodium falciparum. The experiment in a line: microbe, parasite or virus in culture. Conditions: isolate 9067.
Description: Antimalarial activity against Plasmodium falciparum isolate 9067
The subject of assay [11] is Plasmodium falciparum. In words: microbe, parasite or virus in culture. The note with it: isolate AK150 D-42.
Description: Antimalarial activity against Plasmodium falciparum isolate AK150 D-42
Assay [12] deals with Plasmodium falciparum. The experiment in a line: microbe, parasite or virus in culture. Conditions: isolate AK062.
Description: Antimalarial activity against Plasmodium falciparum isolate AK062
Assay [13] concerns Plasmodium falciparum. In words: microbe, parasite or virus in culture. The note with it: isolate AK152 D-56.
Description: Antimalarial activity against Plasmodium falciparum isolate AK152 D-56
The test system of assay [14] is Plasmodium falciparum. In words: microbe, parasite or virus in culture. Conditions: isolate AK167.
Description: Antimalarial activity against Plasmodium falciparum isolate AK167
Assay [15] has as its system Plasmodium falciparum. The experiment in a line: microbe, parasite or virus in culture. The note with it: isolate AK222.
Description: Antimalarial activity against Plasmodium falciparum isolate AK222
The test system of assay [16] is Plasmodium falciparum. The experiment in a line: microbe, parasite or virus in culture. Conditions: isolate AK158.
Description: Antimalarial activity against Plasmodium falciparum isolate AK158
The test system of assay [17] is Plasmodium falciparum. In words: microbe, parasite or virus in culture. The note with it: isolate AK249.
Description: Antimalarial activity against Plasmodium falciparum isolate AK249
In assay [18] the test system is Plasmodium falciparum. In words: microbe, parasite or virus in culture. The note with it: isolate CDA-1553.
Description: Antimalarial activity against Plasmodium falciparum isolate CDA-1553
The test system of assay [19] is Plasmodium falciparum. The experiment in a line: microbe, parasite or virus in culture. Conditions: 3D7.
Description: Antimalarial activity against Plasmodium falciparum 3D7
Assay [20] concerns Plasmodium falciparum. The experiment in a line: microbe, parasite or virus in culture. The note with it: isolate 8966.
Description: Antimalarial activity against Plasmodium falciparum isolate 8966
Assay [21] has as its system Plasmodium falciparum. The experiment in a line: microbe, parasite or virus in culture. The note with it: isolate AK033 D-49.
Description: Antimalarial activity against Plasmodium falciparum isolate AK033 D-49
Assay [22] relates to Plasmodium falciparum. In words: microbe, parasite or virus in culture. Conditions: isolate AK022D-0.
Description: Antimalarial activity against Plasmodium falciparum isolate AK022D-0
The test system of assay [23] is Plasmodium falciparum. The experiment in a line: microbe, parasite or virus in culture. Conditions: isolate 9070.
Description: Antimalarial activity against Plasmodium falciparum isolate 9070
For assay [24], the system named is Plasmodium falciparum. The experiment in a line: microbe, parasite or virus in culture. The note with it: isolate AK033 D-0.
Description: Antimalarial activity against Plasmodium falciparum isolate AK033 D-0
Assay [25] concerns Plasmodium falciparum. The experiment in a line: microbe, parasite or virus in culture. Conditions: isolate 8968.
Description: Antimalarial activity against Plasmodium falciparum isolate 8968
Assay [26] deals with Plasmodium falciparum. The experiment in a line: microbe, parasite or virus in culture. Conditions: isolate AK022 D-28.
Description: Antimalarial activity against Plasmodium falciparum isolate AK022 D-28
The subject of assay [27] is Plasmodium falciparum. In words: microbe, parasite or virus in culture. The note with it: isolate 8973.
Description: Antimalarial activity against Plasmodium falciparum isolate 8973
Assay [28] deals with Plasmodium falciparum. The experiment in a line: microbe, parasite or virus in culture.
Description: Antimalarial activity against Plasmodium falciparum harboring 2 DNNND repeat
Assay [29] has as its system Plasmodium falciparum. The experiment in a line: microbe, parasite or virus in culture. The source holds these as a separate data set.
Description: Antimalarial activity against Plasmodium falciparum harboring pfmdr1 gene
Assay [30] has as its system Plasmodium falciparum. In words: microbe, parasite or virus in culture. This is another data set of the same source.
Description: Antimalarial activity against Plasmodium falciparum harboring pfmdr1 gene with 2 DNNND repeat

By IC50 is commonly meant the point on the concentration scale where inhibition reaches its midpoint. A lower IC50 goes with inhibition by little substance. A word on the IC90: it is the point of the concentration-response curve where the effect stands at 90%.

Structures are written as SMILES.

`Clc1ccc2c(N3CCN(CCCN4CCN(c5ccnc6cc(Cl)ccc56)CC4)CC3)ccnc2c1` [PIPERAQUINE] returned an IC50 in the assay with Plasmodium falciparum [1] of 56 nM.
Regarding `C=C[C@H]1CN2CC[C@H]1C[C@H]2[C@H](O)c1ccnc2ccc(OC)cc12` [QUININE], the IC90 in the assay on Plasmodium falciparum [2] is 157 nM; with Plasmodium falciparum [3], 125 nM. The IC50 in the assay on Plasmodium falciparum [3] was determined as 45 nM; with Plasmodium falciparum [4], 164 nM; with Plasmodium falciparum [5] it was 208 nM; with Plasmodium falciparum [6], 249 nM; in the assay with Plasmodium falciparum [7] it was 234 nM; in the assay with Plasmodium falciparum [8], 73.9 nM. Further, the IC50 worked out at 78.2 nM with Plasmodium falciparum [9]; 80.1 nM in the assay with Plasmodium falciparum [10]; 91.6 nM in the assay on Plasmodium falciparum [11]; 182 nM with Plasmodium falciparum [12]; 208 nM in the assay with Plasmodium falciparum [13]; 227 nM in the assay with Plasmodium falciparum [14]. Further, the IC50 in the assay on Plasmodium falciparum [15] is 210 nM; in the assay with Plasmodium falciparum [16] it was 234 nM; with Plasmodium falciparum [17] it was 270 nM; with Plasmodium falciparum [18], 333 nM; with Plasmodium falciparum [19] it was 27.1 nM; with Plasmodium falciparum [20], 55.8 nM. The IC50 was found to be 54.1 nM with Plasmodium falciparum [21]; 42.4 nM in the assay on Plasmodium falciparum [22]; 41.5 nM with Plasmodium falciparum [23]; 32.8 nM with Plasmodium falciparum [24]; 30.6 nM in the assay with Plasmodium falciparum [25]; 22 nM in the assay on Plasmodium falciparum [26]. Further, the IC50 came to 20 nM in the assay on Plasmodium falciparum [27], 227 nM in the assay with Plasmodium falciparum [28], 74 nM in the assay with Plasmodium falciparum [29] and 92 nM in the assay with Plasmodium falciparum [30].
Regarding `C[C@H]1[C@@H](O)O[C@@H]2O[C@@]3(C)CC[C@H]4[C@H](C)CC[C@@H]1[C@@]24OO3` [ARTENIMOL], half-maximal inhibition with Plasmodium falciparum [1] (IC50) was put at 1 nM.
On the same count and under the same terms, as for `CCCCN(CCCC)CC(O)c1cc(Cl)cc2c1-c1ccc(Cl)cc1/C2=C/c1ccc(Cl)cc1` (stereo not drawn) [LUMEFANTRINE], the figure is 56 nM.

These data come from ChEMBL document CHEMBL1629706 (Antimicrob Agents Chemother, 2010).
